# Data as given in PMC9816411, “Host-derived chimeric peptides clear the causative bacteria and augment host innate immunity during infection: A case study of HLB in citrus and fire blight in apple” (Frontiers in Plant Science, 2022).
# Ends that are not written are not given here.
# Tested on: E. coli BL21
# Details: BL21, 24 h
Sequence,IC50,IC99 (~MIC)
FWQRRIRRWRR [11P-3],49 ± 2.79 µM,160.80 ± 3.25 µM
KKLIKKILKIL [11P-1],12.9 ± 0.62 µM,29.38 ± 0.75 µM
KKLPKEILKILGSGYGSLPKEILKILELKK [Gen-1],10.22 ± 0.07 µM,11.4 ± 0.07 µM

# Tested on: E. coli strain BL21 (and, in some cases, ATCC25922)
# Details: BL21, 24 h
row,Sequence,MIC
1,FQWQRNIRKVR [11P-2],>20 µM
2,FWQRRIRRWRR [11P-3],>20 µM
3,FWQRRIRRWRRGSGYGSPGKKLIKKILKIL [30P-2],1.25 to 2.5 µM
4,FWQRRIRRWRRGSGYGSPGRRWWRWWR [27P-2],5 to 10 µM
5,IERSRNLDWYKGPTLLDALKNLNEGKRPSDK [I31LB],>20 µM
6,IERSTNLDWYKGPTLL [16P-1],>20 µM
7,KKLIKKILKIL [11P-1],10 to 20 µM
8,KKLPKEILKILGSGYGSLPKEILKILELKK [Gen-1],5 to 10 µM
9,KPRGSEQLQELTRRLLDSPLERRFWQWMRR [UGK-37],>20 µM
10,KPRGSEQLQELTRRLLDSPLERRWWEWMRR [UGK-29],>20 µM
11,KPRLSEQLQELTRRLLDSPLERRWWEWWRR [UGK-33],>20 µM
12,KRPEELLQKLKSLEGSKAHLQHHDWTSK [UGK-41],>20 µM
13,LPKRLEELLQKLKSLEGSKAHEKLHDWTRK [UGK-45],>20 µM
14,QPKRLEELLEKLKSLEGSKAHEKLHDWTRK [UGK-49],>20 µM
15,RLPEAFQWQRNIRKVRRPDSPGRRWWRWWR [UGK-9],5 to 10 µM
16,RLPEAFQWQRRLRRWRRPDSPGRRWWRWWR [UGK-5],5 to 10 µM
17,RLPKAFQWQRRLRRWRRPYSPGRRWWRWWR [UGK-1],5 to 10 µM
18,RRWWRWWR [8P-1],>20 µM
19,RRWWRWWRGSGYGSPGFWQRRIRRWRR [27P-1],>20 µM
20,RRWWRWWRGSYGSVYGSPGFWQRRIRRWRR [UGI-7],5 to 10 µM
